Results as given in patent publication US20250098679A1, “HERBICIDAL PYRIDONE DERIVATIVES” (SYNGENTA CROP PROTECTION AG, priority 2021, published 2025).

How the values were obtained:
Type in all cases: in vivo
Details in all cases: evaluated after 13 days
[1] = tested on: Ipomoea hederacea (IPOHE); assay: Post-emergence Test, Ipomoea hederacea (IPOHE); parameters: key to percentage damage caused to the plant, IPOHE (five-point scale): 5=81-100%, 4=61-80%, 3=41-60%, 2=21-40%, 1=0-20% damage
Method in brief: (§1)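 Tested at 1000 g/ha unless otherwise stated. Plants were held at 24/16 °C day/night with a 14 h light period. Percent damage was read at 13 days and reported in five bands.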

[2] = tested on: Ipomoea hederacea (IPOHE); assay: Pre-emergence Test, Ipomoea hederacea (IPOHE)
[3] = tested on: Amaranthus retoflexus (AMARE); assay: Pre-emergence Test, Amaranthus retoflexus (AMARE)
Zea mays (ZEAMX) [4] = assay: Post-emergence Test, Zea mays (ZEAMX); parameters: key to percentage damage caused to the plant, ZEAMX (five-point scale): 5=81-100%, 4=61-80%, 3=41-60%, 2=21-40%, 1=0-20% damage
Method in brief: as §1

Setaria faberi (SETFA) [5] = assay: Post-emergence Test, Setaria faberi (SETFA); parameters: key to percentage damage caused to the plant, SETFA (five-point scale): 5=81-100%, 4=61-80%, 3=41-60%, 2=21-40%, 1=0-20% damage
Method in brief: as §1

Zea mays (ZEAMX) [6] = assay: Pre-emergence Test, Zea mays (ZEAMX)
[7] = tested on: Amaranthus palmeri (AMAPA); assay: Pre-emergence Test, Amaranthus palmeri (AMAPA)
Setaria faberi (SETFA) [8] = assay: Pre-emergence Test, Setaria faberi (SETFA)
[9] = tested on: Echinochloa crus-galli (ECHCG); assay: Pre-emergence Test, Echinochloa crus-galli (ECHCG)
[10] = tested on: Echinochloa crus-galli (ECHCG); assay: Post-emergence Test, Echinochloa crus-galli (ECHCG); parameters: key to percentage damage caused to the plant, ECHCG (five-point scale): 5=81-100%, 4=61-80%, 3=41-60%, 2=21-40%, 1=0-20% damage
Method in brief: as §1

[11] = tested on: Amaranthus retoflexus (AMARE); assay: Post-emergence Test, Amaranthus retoflexus (AMARE); parameters: key to percentage damage caused to the plant, AMARE (five-point scale): 5=81-100%, 4=61-80%, 3=41-60%, 2=21-40%, 1=0-20% damage
Method in brief: as §1

[12] = tested on: Amaranthus palmeri (AMAPA); assay: Post-emergence Test, Amaranthus palmeri (AMAPA); parameters: key: 5=81-100%, 4=61-80%, 3=41-60%, 2=21-40%, 1=0-20% damage
Method in brief: as §1

Row | SMILES | percentage damage caused to the plant, IPOHE (five-point scale) ([1]; 1000 g/ha) | Pre-emergence Test IPOHE, percentage damage caused to the plant (five-point scale) ([2]; 1000 g/ha) | Pre-emergence Test AMARE, percentage damage caused to the plant (five-point scale) ([3]; 1000 g/ha) | percentage damage caused to the plant, ZEAMX (five-point scale) (Zea mays (ZEAMX) [4]; 1000 g/ha) | percentage damage caused to the plant, SETFA (five-point scale) (Setaria faberi (SETFA) [5]; 1000 g/ha) | Pre-emergence Test ZEAMX, percentage damage caused to the plant (five-point scale) (Zea mays (ZEAMX) [6]; 1000 g/ha) | Pre-emergence Test AMAPA, percentage damage caused to the plant (five-point scale) ([7]; 1000 g/ha) | Pre-emergence Test SETFA, percentage damage caused to the plant (five-point scale) (Setaria faberi (SETFA) [8]; 1000 g/ha) | Pre-emergence Test ECHCG, percentage damage caused to the plant (five-point scale) ([9]; 1000 g/ha) | percentage damage caused to the plant, ECHCG (five-point scale) ([10]; 1000 g/ha) | percentage damage caused to the plant, AMARE (five-point scale) ([11]; 1000 g/ha) | percentage damage caused to the plant, AMAPA (five-point scale) ([12]; 1000 g/ha) | percentage damage caused to the plant, IPOHE (five-point scale) ([1]; 250 g/Ha) | Pre-emergence Test IPOHE, percentage damage caused to the plant (five-point scale) ([2]; 250 g/Ha (*)) | Pre-emergence Test AMARE, percentage damage caused to the plant (five-point scale) ([3]; 250 g/Ha (*)) | percentage damage caused to the plant, ZEAMX (five-point scale) (Zea mays (ZEAMX) [4]; 250 g/Ha) | percentage damage caused to the plant, SETFA (five-point scale) (Setaria faberi (SETFA) [5]; 250 g/Ha) | percentage damage caused to the plant, ECHCG (five-point scale) ([10]; 250 g/Ha) | percentage damage caused to the plant, AMARE (five-point scale) ([11]; 250 g/Ha) | percentage damage caused to the plant, AMAPA (five-point scale) ([12]; 250 g/Ha) | other results
1 | CCn1c(Cn2nc(C(F)(F)F)cc2O)cc(=O)c(C(=O)O)c1-c1ccc(Cl)c(Cl)c1 [Compound 147, 2-(3,4-dichlorophenyl)-1-ethyl-6-[[5-hydroxy-3-(trifluoromethyl)pyrazol-1-yl]methyl]-4-oxo-pyridine-3-carboxylic acid] | 1 (1=0-20%) | 0 | 0 | 0 | 0 | 0 | 1 (1=0-20%) | 1 (1=0-20%) | 0 | 0 | 1 (1=0-20%) | 0 | – | – | – | – | – | – | – | – | –
2 | CCOc1cc(C(F)(F)F)nn1Cc1cc(=O)c(C(=O)O)c(-c2ccc(Cl)c(Cl)c2)n1CC [Compound 148, 2-(3,4-dichlorophenyl)-6-[[5-ethoxy-3-(trifluoromethyl)pyrazol-1-yl]methyl]-1-ethyl-4-oxo-pyridine-3-carboxylic acid] | 2 (2=21-40%) | 2 (2=21-40%) | 0 | 2 (2=21-40%) | 4 (4=61-80%) | 0 | 1 (1=0-20%) | 5 (5=81-100%) | 2 (2=21-40%) | 4 (4=61-80%) | 3 (3=41-60%) | 3 (3=41-60%) | 2 (2=21-40%) | 0 | 0 | 1 (1=0-20%) | 3 (3=41-60%) | 2 (2=21-40%) | 1 (1=0-20%) | 1 (1=0-20%) | Pre-emergence Test ZEAMX, percentage damage caused to the plant (five-point scale) (Zea mays (ZEAMX) [6]; 250 g/Ha (*)): 0; Pre-emergence Test AMAPA, percentage damage caused to the plant (five-point scale) ([7]; 250 g/Ha (*)): 0; Pre-emergence Test SETFA, percentage damage caused to the plant (five-point scale) (Setaria faberi (SETFA) [8]; 250 g/Ha (*)): 2 (2=21-40%); Pre-emergence Test ECHCG, percentage damage caused to the plant (five-point scale) ([9]; 250 g/Ha (*)): 0
3 | CCOc1cc(C)nn1Cc1cc(=O)c(C(=O)O)c(-c2ccc(Cl)c(Cl)c2)n1CC [Compound 149, 2-(3,4-dichlorophenyl)-6-[(5-ethoxy-3-methyl-pyrazol-1-yl)methyl]-1-ethyl-4-oxo-pyridine-3-carboxylic acid] | 2 (2=21-40%) | 0 | 1 (1=0-20%) | 2 (2=21-40%) | 3 (3=41-60%) | 0 | 3 (3=41-60%) | 4 (4=61-80%) | 1 (1=0-20%) | 4 (4=61-80%) | 2 (2=21-40%) | 1 (1=0-20%) | 1 (1=0-20%) | – | – | 0 | 1 (1=0-20%) | 1 (1=0-20%) | 0 | 0 | –
4 | CCn1c(Cn2nc(C)cc2OC(F)F)cc(=O)c(C(=O)O)c1-c1ccc(Cl)c(Cl)c1 [Compound 150, 2-(3,4-dichlorophenyl)-6-[[5-(difluoromethoxy)-3-methyl-pyrazol-1-yl]methyl]-1-ethyl-4-oxo-pyridine-3-carboxylic acid] | 2 (2=21-40%) | 4 (4=61-80%) | 1 (1=0-20%) | 3 (3=41-60%) | 4 (4=61-80%) | 3 (3=41-60%) | 2 (2=21-40%) | 5 (5=81-100%) | 5 (5=81-100%) | 4 (4=61-80%) | 2 (2=21-40%) | 1 (1=0-20%) | 4 (4=61-80%) | 1 (1=0-20%) | 0 | 1 (1=0-20%) | 4 (4=61-80%) | 2 (2=21-40%) | 0 | 0 | Pre-emergence Test ZEAMX, percentage damage caused to the plant (five-point scale) (Zea mays (ZEAMX) [6]; 250 g/Ha (*)): 1 (1=0-20%); Pre-emergence Test AMAPA, percentage damage caused to the plant (five-point scale) ([7]; 250 g/Ha (*)): 1 (1=0-20%); Pre-emergence Test SETFA, percentage damage caused to the plant (five-point scale) (Setaria faberi (SETFA) [8]; 250 g/Ha (*)): 5 (5=81-100%); Pre-emergence Test ECHCG, percentage damage caused to the plant (five-point scale) ([9]; 250 g/Ha (*)): 4 (4=61-80%)
5 | CCn1c(Cn2nc(C(F)(F)F)cc2OC(F)F)cc(=O)c(C(=O)O)c1-c1ccc(Cl)c(Cl)c1 [Compound 151, 2-(3,4-dichlorophenyl)-6-[[5-(difluoromethoxy)-3-(trifluoromethyl)pyrazol-1-yl]methyl]-1-ethyl-4-oxo-pyridine-3-carboxylic acid] | 4 (4=61-80%) | 4 (4=61-80%) | 0 | 3 (3=41-60%) | 4 (4=61-80%) | 2 (2=21-40%) | 1 (1=0-20%) | 5 (5=81-100%) | 5 (5=81-100%) | 4 (4=61-80%) | 3 (3=41-60%) | 2 (2=21-40%) | 4 (4=61-80%) | 2 (2=21-40%) | 0 | 1 (1=0-20%) | 4 (4=61-80%) | 3 (3=41-60%) | 1 (1=0-20%) | 1 (1=0-20%) | Pre-emergence Test ZEAMX, percentage damage caused to the plant (five-point scale) (Zea mays (ZEAMX) [6]; 250 g/Ha (*)): 2 (2=21-40%); Pre-emergence Test AMAPA, percentage damage caused to the plant (five-point scale) ([7]; 250 g/Ha (*)): 0; Pre-emergence Test SETFA, percentage damage caused to the plant (five-point scale) (Setaria faberi (SETFA) [8]; 250 g/Ha (*)): 5 (5=81-100%); Pre-emergence Test ECHCG, percentage damage caused to the plant (five-point scale) ([9]; 250 g/Ha (*)): 5 (5=81-100%)
